According to US20190350940A1, “PLATINUM COMPOUNDS, COMPOSITIONS, AND USES THEREOF” (priority 2015, published 2019):

Legend:
[1] = pH stability: buffering capacity (5 mM versus 100 mM citrate); assay type: physicochemical; details: 5 mM versus 100 mM citrate saline pH about 4; impurity profile over 10 hr
Description: In order to assess the effect of the buffering capacity, formulations were made with 5 mM and 100 mM citrate saline pH about 4. Two formulations were made in 100 mM citrate, one at 0.1 mg/ml and the other at 1 mg/ml. A third formulation of 5 mM citrate at 1 mg/ml was made for comparison to determine whether increasing the buffering capacity improved the stability of the formulation.

CYP2D6 = CYP2D6 (Homo sapiens, UniProt P10635); test: CYP inhibition, 2D6; assay type: in vitro ADME
Sequence of CYP2D6 (P10635 whole entry): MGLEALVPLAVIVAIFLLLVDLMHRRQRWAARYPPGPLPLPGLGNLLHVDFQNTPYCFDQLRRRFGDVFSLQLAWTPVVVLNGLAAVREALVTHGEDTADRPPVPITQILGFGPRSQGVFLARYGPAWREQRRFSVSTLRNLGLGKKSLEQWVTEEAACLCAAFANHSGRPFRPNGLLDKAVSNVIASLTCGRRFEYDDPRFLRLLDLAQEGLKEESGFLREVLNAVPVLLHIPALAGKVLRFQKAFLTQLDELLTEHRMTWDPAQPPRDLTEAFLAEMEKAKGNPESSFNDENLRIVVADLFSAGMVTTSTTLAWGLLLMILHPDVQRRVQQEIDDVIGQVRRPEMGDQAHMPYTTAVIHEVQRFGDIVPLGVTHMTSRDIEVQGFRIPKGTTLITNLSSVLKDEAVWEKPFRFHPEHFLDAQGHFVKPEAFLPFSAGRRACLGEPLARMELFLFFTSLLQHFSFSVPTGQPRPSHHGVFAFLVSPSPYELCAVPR

CC(=O)[O][Pt]([NH2])([NH2])([Cl])([Cl])[O]C(=O)NCCCCCN1C(=O)C=CC1=O [Compound 8]
Effect of buffering capacity on stability [1]: little effect | IC50 (CYP2D6): 0.72 µM
